{
  "source": "patent US8367727B2",
  "about": "“Method of using abscisic acid to treat diseases and disorders” (priority 2006, dated 2013)",
  "key": {"[1]": {"tested_on": "db/db mice", "assay": "WAT and skeletal muscle (SM) inflammation in db/db mice (Example 8)", "type": "in vivo", "protocol": "WAT Digestion. […] The floating portion (adipocyte-rich portion), was then removed and digested for an addition 60 minutes at 37° C.\nQuantitative real-time reverse transcriptase PCR.\nComplementary DNA (cDNA) concentrations for genes of interest were examined by real-time quantitative PCR using an iCycler IQ System and the iQ SYBR green supermix (BioRad). A standard curve was generated for each gene using 10-fold dilutions of purified amplicons starting at 5 pg of cDNA and used later to calculate the starting amount of target cDNA in the unknowns."}, "[2]": {"tested_on": "immune cell populations in blood and MLN", "assay": "Immunophenotyping of blood and mesenteric lymph nodes by flow cytometry after DSS challenge", "type": "in vivo, mice", "protocol": "MLNs were excised and crushed with frosted slides, washed with PBS, and resuspended in PBS and enumerated with a Coulter Counter (Beckman Coulter, Fullerton, Calif.). MLN-derived cells (2×10^5 cells/well) or whole blood (10 μL/well) were seeded onto 96-well plates, centrifuged at 4° C. at 3000 rpm for 4 minutes, and washed with PBS containing 5% serum and 0.09% sodium azide (FACS buffer). […] For lymphocyte assessment, cells were incubated with anti-CD4-Alexa Fluor 700 (2 μg/mL; BD Pharmingen), anti-CD8-PerCp-Cy5.5 (2 μg/mL, eBioscience), CD3 PE-Cy5 (2 μg/mL; BD Pharmingen), anti-CD25-FITC (BD), anti-CTLA-4 FITC (BD), or anti-FoxP3-PE (2 μg/mL, eBioscience) as previously shown (77). Flow results were computed with a BD LSR II flow cytometer and data analyses was performed with FACS Diva software (BD)."}, "[3]": {"molecular_target": "T1, PPAR γ (Mus musculus, UniProt P37238)", "T1 construct": "expressed in transfected cells; host or cells: 3T3-L1 pre-adipocytes (ATCC)", "T1 sequence (P37238 1-505)": "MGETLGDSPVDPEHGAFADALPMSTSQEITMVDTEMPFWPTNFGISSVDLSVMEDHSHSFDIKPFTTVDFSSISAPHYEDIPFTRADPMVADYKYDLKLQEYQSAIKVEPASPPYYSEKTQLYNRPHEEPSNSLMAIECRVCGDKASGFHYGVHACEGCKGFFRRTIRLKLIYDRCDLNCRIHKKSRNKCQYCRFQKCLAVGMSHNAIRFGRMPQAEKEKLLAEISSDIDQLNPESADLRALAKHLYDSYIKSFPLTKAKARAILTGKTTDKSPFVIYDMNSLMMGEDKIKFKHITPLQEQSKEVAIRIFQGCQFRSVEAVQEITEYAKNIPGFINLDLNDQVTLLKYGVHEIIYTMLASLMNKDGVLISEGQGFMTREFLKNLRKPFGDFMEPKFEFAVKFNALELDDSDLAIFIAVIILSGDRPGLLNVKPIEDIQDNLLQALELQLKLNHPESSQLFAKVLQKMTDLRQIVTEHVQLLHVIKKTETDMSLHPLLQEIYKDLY", "assay": "PPAR γ transactivation (luciferase reporter) in transfected 3T3-L1 pre-adipocytes", "type": "cell-based", "protocol": "Transformation plasmid DNA was performed using One Shot TOP10 (Invitrogen, Carlsbad, Calif.). Briefly, […] of the ligation reaction were added to a thawed 50 μl vial of One Shot® cells for each reaction. The vials were then set on ice for 30 minutes, followed by 30 seconds incubation in a 42° C. water bath. Afterwards, 250 μl of pre-warmed S.O.C medium was added to each vial. Vials were then secured on their sides in a microcentrifuge rack and were placed in a Gyromax 727 orbital shaking incubator (Amerex Instruments, Lafayette, Calif.) and incubated at 37° C. at 225 rpm. After 1 hour incubation, 100 μl of each transformation vial was spread on separate, labeled LB agar plates (Sigma-Aldrich, Milwaukee, Wis.), inverted, and incubated at 37° C. overnight. Colonies were selected and isolated using Plasmid Maxi Kit (Qiagen, Valencia, Calif.) according to manufacturer's instructions. After isolation, the plasmids were transfected into 3T3-L1 pre-adipocytes (American Type Culture Collection, Manassas, Va.) using the Targefect-BAC transfection kit. (Targeting Systems, Santee, Calif.). Briefly, 3T3-L1 cells were cultured in complete DMEM high glucose media (Invitrogen) at 37° C. for 2 days until confluence. After digestion with 2 ml trypsin (Mediatech, Herndon, Va.), the cells were resuspended in 6 ml high glucose DMEM (Mediatech) and then aliquoted into a 24 well plate. […] On the day of the reading, the cells were washed with 500 μl PBS and lysed with 100 μl lysis reagent (Promega, Madison, Wis.). After 15 minutes, lysed cells were collected and luciferase activity for each concentration was calculated using the Dual-Luciferase reporter assay system (Promega) and TD-20/20 Single-Tube Luminometer (Turner Biosystems, Sunnyvale, Calif.) according to manufacturers' instructions. Relative luciferase activity (RLA) was calculated as a ratio of the chemiluminescence 10 seconds after the Luciferase Assay Reagent II (Promega) was added over the chemiluminescence 10 seconds after the Stop&Glo Reagent (Promega). […]"}, "[4]": {"tested_on": "db/db mice", "assay": "Fasting glucose, plasma MCP-1, plasma and liver triglycerides, hepatic steatosis, body weight in db/db mice (Example 9)", "type": "in vivo", "protocol": "Hepatic Steatosis, plasma MCP-1 and liver triglyceride content Liver specimens were excised and immediately fixed in 10% phosphate buffered neutral formalin, embedded in paraffin, cut at thicknesses of 5 microns and stained with hematoxylin and eosin (H&E) for histological examination. For hepatic triglyceride assessment, livers fragments (50-100 mg) were extracted for 16 hours at 4° C. with 4 ml CHCl/methanol (2:1, vol/vol). Two milliliters of 0.6% NaCl were then added to the extract, and the mixture was centrifuged at 2,000×g for 20 minutes. Lipids were isolated by nitrogen evaporation, dissolved in 100 μl isopropanol, and quantified with a triglyceride assay kit (Stanbio). The Triglyceride Assay Kit (Sigma) and Ready-set-go MCP-1 ELISA (ebioscience) were used to quantify plasma TGs and MCP-1, respectively, according to manufacturer's instructions."}, "[5]": {"conditions": "db/db mice, 100 mg/kg diet, 36 days, vs control high-fat diet"}},
  "data": [
    {"smiles": "CC1=CC(=O)CC(C)(C)C1(O)/C=C/C(C)=C\\C(=O)O", "note": "(racemic) [ABA, abscisic acid]", "values": [
      {"measurement": "MCP-1 expression in SM", "setting": "[1]; ABA-fed mice", "result": "significantly downregulated"},
      {"measurement": "MCP-1 expression in stromal vascular cells (SVCs)", "setting": "[1]; ABA-fed mice", "result": "significantly downregulated"},
      {"measurement": "TNF-α expression in SM, control-fed db/db versus ABA-fed db/db mice", "setting": "[1]; P=0.03", "result": "approximately 2 fold"},
      {"measurement": "IMAT adipocyte hypertrophy", "setting": "[1]; db/db mice, 100 mg ABA/kg diet, 36 days", "result": "significantly attenuated"},
      {"measurement": "CCR2 and CCR5 macrophage infiltration into WAT", "setting": "[1]; dietary ABA-supplementation, 36 days", "result": "significantly decreased"},
      {"measurement": "CTLA-4 expression on CD4+ T cells in blood", "setting": "[2]; ABA-fed wild-type mice", "result": "significantly increased"},
      {"measurement": "percent of CD4+CD25+FoxP3+ regulatory T cells", "setting": "[2]; MLN", "result": "significantly increased"},
      {"measurement": "effect on F4/80+CD11b+ monocytes", "setting": "[2]; PPAR γ-deficient (CD4cre) mice", "result": "absent"},
      {"measurement": "increase of CTLA-4 expression on CD4+ T cells in blood", "setting": "[2]; lack of PPAR γ (CD4cre mice)", "result": "abrogated"},
      {"measurement": "F4/80+CD11b+ monocytes", "setting": "[2]; wt mice, blood", "result": "significantly decreased"},
      {"measurement": "PPAR γ activity at 50 μM versus 10 μM", "setting": "[3]; 50 μM ABA", "result": "No additional increase in PPAR γ activity"},
      {"measurement": "potency relative to rosiglitazone (times less potent)", "setting": "[3]; in vitro, 3T3-L1", "result": 10, "unit": "fold"},
      {"measurement": "ABA concentration at which relative luciferase activity begins to be significantly increased", "setting": "[3]; racemic ABA 1, 2.5, 5, 10, 50 μM, 24 hours", "result": 10, "unit": "µM"},
      {"measurement": "MCP-1 protein concentrations in plasma", "setting": "[4]; ABA-fed db/db mice", "result": "significantly decreased"},
      {"measurement": "decrease in plasma MCP-1", "setting": "[4]; ABA-fed db/db mice", "result": 4, "unit": "fold"},
      {"measurement": "hepatic steatosis, liver histology", "setting": "[4]; ABA-fed db/db mice", "result": "less severe"},
      {"measurement": "fasting blood glucose (FBG)", "setting": "[4]; [5]", "result": "significantly lower"},
      {"measurement": "plasma TGs concentrations", "setting": "[4]; [5]", "result": "significantly lower"},
      {"measurement": "food intake or body weights", "setting": "[4]; db/db mice, throughout the experiment", "result": "did not alter food intake or body weights"},
      {"measurement": "amount of liver triglycerides", "setting": "[4]; vs control diet", "result": "significantly lower"}
    ]}
  ]
}
